Data on 8 compounds can be found in PubChem BioAssay (NCI).

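Exposure lasted 48 hours, with cells grown in 96-well plates and compounds tested at five concentrations. Abbreviation: GI50, concentration required for 50% inhibition of growth. The concentration for full growth arrest is given as TGI.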 Where only a bound is given, the exact number is not on record here.

Some test systems named below: DU-145 prostate; HCT-15 colon; MOLT-4 leukemia; NCI-H23 lung; PC-3 prostate; RXF 393 renal; SK-MEL-28 melanoma; SR leukemia; T-47D breast; UACC-62 melanoma.
Holding throughout (experiment): NCI tumour cell line growth inhibition, 48 h

In the case of `C#CCOc1cccc(-c2ncnc3cc(NC(=O)CCl)ccc23)c1`, the GI50 in the experiment on DU-145 prostate was 1.16 µM; with HCT-15 colon, 0.0179 µM; in the experiment with MOLT-4 leukemia it was 0.043 µM; in the experiment with NCI-H23 lung it was 0.886 µM; with PC-3 prostate it was 813 nM; in the experiment on RXF 393 renal it was 1.4 µM. Moreover, the GI50 is 1.56 µM in the experiment with SK-MEL-28 melanoma, 0.0363 µM with SR leukemia, 1690 nM with T-47D breast and 0.481 µM in the experiment on UACC-62 melanoma. In addition, the TGI in the experiment with DU-145 prostate is 2.47 µM; with HCT-15 colon, 1.71 µM; in the experiment on MOLT-4 leukemia, more than 100 µM; in the experiment with NCI-H23 lung it was 3.14 µM; with PC-3 prostate, 4.84 µM; in the experiment with RXF 393 renal it was 3.16 µM. The TGI was 4.5 µM with SK-MEL-28 melanoma, more than 100 µM in the experiment with SR leukemia, 5.02 µM in the experiment on T-47D breast and 3.07 µM in the experiment with UACC-62 melanoma.
With `COc1cccc(-c2nc3sccn3c2-c2ccnc(NCCCNS(=O)(=O)c3cccc(F)c3)c2)c1`, the GI50 with DU-145 prostate is 3.04 µM; in the experiment on HCT-15 colon, 2.63 µM; in the experiment on MOLT-4 leukemia, 1.84 µM; with NCI-H23 lung, 2.12 µM; in the experiment on PC-3 prostate it was 2120 nM; in the experiment with RXF 393 renal it was 2.47 µM. Also, the GI50 is 2.96 µM with SK-MEL-28 melanoma, 2.59 µM with SR leukemia, 1240 nM in the experiment on T-47D breast and 1.62 µM in the experiment with UACC-62 melanoma. The TGI in the experiment with DU-145 prostate was more than 100 µM; with HCT-15 colon, more than 100 µM; in the experiment on MOLT-4 leukemia, 5.46 µM; with NCI-H23 lung, 7.29 µM; in the experiment on PC-3 prostate, 11.6 µM; in the experiment with RXF 393 renal it was more than 100 µM. For the same compound, the TGI is 9.82 µM in the experiment with SK-MEL-28 melanoma, more than 100 µM in the experiment with SR leukemia, 4.93 µM with T-47D breast and 5 µM in the experiment with UACC-62 melanoma.
For `C=C1C(=O)O[C@@H]2C[C@@H](C)[C@@H]3C=CC(=O)[C@@]3(C)[C@@H](OC(=O)CC(=O)O[C@H]3[C@@H]4C(=C)C(=O)O[C@@H]4C[C@@H](C)[C@@H]4C=CC(=O)[C@]43C)[C@H]12`, the TGI is 12.9 µM in the experiment with DU-145 prostate; 0.0773 µM in the experiment on HCT-15 colon; less than 0.0304 µM in the experiment with MOLT-4 leukemia; 0.123 µM in the experiment with NCI-H23 lung; 0.436 µM with PC-3 prostate; 0.0258 µM with RXF 393 renal. Besides, the TGI in the experiment on SK-MEL-28 melanoma was determined as 0.11 µM; in the experiment with SR leukemia, 0.0548 µM; in the experiment on T-47D breast it was 2.73 µM; with UACC-62 melanoma it was 0.0716 µM.
For `Cc1cc(=O)oc2cc(OC(=O)N(C)C)c(Cl)cc12`, the TGI in the experiment with DU-145 prostate was more than 100 µM; in the experiment on HCT-15 colon, more than 100 µM; in the experiment with MOLT-4 leukemia it was more than 100 µM; in the experiment on NCI-H23 lung, more than 100 µM; in the experiment with PC-3 prostate it was more than 100 µM; with RXF 393 renal, 41.5 µM. Moreover, the TGI in the experiment with SK-MEL-28 melanoma is more than 100 µM; in the experiment on SR leukemia, more than 100 µM; with T-47D breast, more than 100 µM; in the experiment with UACC-62 melanoma it was 83.2 µM.
In the case of `Cc1nn(-c2nc3ccccc3[nH]2)c(N)c1-c1ccc(Cl)cc1`, the GI50 in the experiment with DU-145 prostate is 6.86 µM; with HCT-15 colon, 3.88 µM; in the experiment with MOLT-4 leukemia it was 3.54 µM; in the experiment on NCI-H23 lung, 5.23 µM; in the experiment on PC-3 prostate, 2970 nM; in the experiment with RXF 393 renal, 4.26 µM. The GI50 in the experiment with SK-MEL-28 melanoma was 20.9 µM; in the experiment on SR leukemia it was 3.63 µM; in the experiment with T-47D breast it was 3420 nM; in the experiment on UACC-62 melanoma it was 5.9 µM. Further, the TGI is more than 100 µM with DU-145 prostate; more than 100 µM in the experiment on HCT-15 colon; more than 100 µM with MOLT-4 leukemia; more than 100 µM with NCI-H23 lung; more than 100 µM in the experiment with PC-3 prostate; 46.4 µM in the experiment on RXF 393 renal. The TGI in the experiment with SK-MEL-28 melanoma, in the experiment on SR leukemia, with T-47D breast and in the experiment with UACC-62 melanoma was more than 100 µM in each case.
On to `CCCC(=O)NC1=C(Cl)C(=O)c2ccccc2C1=O`, for which the TGI amounted to 20.9 µM in the experiment with DU-145 prostate; 12.2 µM in the experiment on HCT-15 colon; 7.2 µM in the experiment with MOLT-4 leukemia; 10.3 µM with NCI-H23 lung; 13.8 µM with PC-3 prostate; 6.08 µM in the experiment on RXF 393 renal. Moreover, the TGI worked out at 17 µM in the experiment on SK-MEL-28 melanoma, 6.31 µM in the experiment on SR leukemia, 8.02 µM with T-47D breast and 10.3 µM in the experiment with UACC-62 melanoma.
Regarding `S=C(Nc1ccc(Br)cc1)Nc1ccc(Br)cc1`, the GI50 in the experiment on DU-145 prostate was 6.41 µM; in the experiment with HCT-15 colon, 3.35 µM; in the experiment with MOLT-4 leukemia it was 6.59 µM; in the experiment on NCI-H23 lung, 3.47 µM; with PC-3 prostate it was 4170 nM; in the experiment on RXF 393 renal, more than 100 µM. Moreover, the GI50 with SK-MEL-28 melanoma is 49.8 µM; in the experiment with SR leukemia, 6.96 µM; with T-47D breast it was 2990 nM; in the experiment with UACC-62 melanoma it was 3.52 µM. For the same compound, the TGI with DU-145 prostate, in the experiment with HCT-15 colon, in the experiment on MOLT-4 leukemia, in the experiment with NCI-H23 lung, in the experiment on PC-3 prostate and in the experiment with RXF 393 renal was more than 100 µM each time. Also, the TGI in the experiment with SK-MEL-28 melanoma, in the experiment with SR leukemia, in the experiment with T-47D breast and in the experiment on UACC-62 melanoma was more than 100 µM in each case.
For `Cn1cc(C2=C(c3cn(CCCCN)c4ccccc34)C(=O)NC2=O)c2ccccc21`, the GI50 in the experiment on DU-145 prostate was more than 25 µM; with HCT-15 colon, more than 25 µM; with MOLT-4 leukemia, more than 25 µM; in the experiment on NCI-H23 lung it was more than 25 µM; with PC-3 prostate it was more than 25000 nM; in the experiment on RXF 393 renal it was more than 25 µM. In addition, the GI50 in the experiment with SK-MEL-28 melanoma was more than 25 µM; in the experiment with SR leukemia, more than 25 µM; in the experiment on T-47D breast, more than 25000 nM; in the experiment with UACC-62 melanoma it was more than 25 µM. Besides, the TGI in the experiment with DU-145 prostate, in the experiment with HCT-15 colon, with MOLT-4 leukemia, with NCI-H23 lung, in the experiment on PC-3 prostate and in the experiment with RXF 393 renal was more than 25 µM throughout. Besides, the TGI in the experiment with SK-MEL-28 melanoma, in the experiment with SR leukemia, in the experiment on T-47D breast and with UACC-62 melanoma was more than 25 µM throughout.
